In patent publication US8952024B2, “Herbicidal pyrimidone derivatives” (E I du Pont de Nemours and Company, priority 2009, dated 2015):

What was measured:
Type in all cases: in vivo
[1] = system: barnyardgrass (Echinochloa crus-galli); experiment: Test A pre-/postemergence plant response
In short: (§1)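 Injury was scored visually after roughly ten days against untreated controls, 0 = no effect, 100 = complete control. Test chemicals in a surfactant-containing non-phytotoxic solvent were sprayed either onto soil preemergence or onto one- to two-leaf, 2–10 cm plants postemergence.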

[2] = system: pigweed (Amaranthus retroflexus); experiment: Test A pre-/postemergence plant response
In short: as §1

[3] = system: Italian ryegrass (Lolium multiflorum); experiment: Test B pre-/postemergence plant response
In short: (§2)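 Test compounds, formulated in a non-phytotoxic solvent mixture with surfactant, are applied to the soil surface (loam and sand blend) right after seeding, or sprayed over plants at the 1- to 4-leaf stage grown in peat moss/vermiculite medium. After 13 to 15 days under glasshouse conditions, each species is scored visually from 0 (no effect) to 100 (complete control) against controls.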

[4] = system: Surinam grass (Brachiaria decumbens); experiment: Test B pre-/postemergence plant response
In short: as §2

[5] = system: blackgrass (Alopecurus myosuroides); experiment: Test B pre-/postemergence plant response
In short: as §2

[6] = system: downy bromegrass (Bromus tectorum); experiment: Test B pre-/postemergence plant response
In short: as §2

[7] = system: goosegrass (Eleusine indica); experiment: Test B pre-/postemergence plant response
In short: as §2

[8] = system: large crabgrass (Digitaria sanguinalis); experiment: Test B pre-/postemergence plant response
In short: as §2

[9] = system: morningglory (Ipomoea coccinea); experiment: Test B pre-/postemergence plant response
In short: as §2

[10] = system: velvetleaf (Abutilon theophrasti); experiment: Test B pre-/postemergence plant response
In short: as §2

[11] = system: wheat (Triticum aestivum); experiment: Test B pre-/postemergence plant response
In short: as §2

[12] = system: woolly cupgrass (Eriochloa villosa); experiment: Test B pre-/postemergence plant response
In short: as §2

[13] = system: yellow nutsedge (Cyperus esculentus); experiment: Test B pre-/postemergence plant response
In short: as §2

[14] = Postemergence, 125 g ai/ha, 0 to 100 scale where 0 is no effect and 100 is complete control
[15] = Postemergence, 500 g ai/ha, 0 to 100 scale, 0 = no effect, 100 = complete control, approx. ten days
[16] = Preemergence, 125 g ai/ha, 0 to 100 scale, 0 = no effect, 100 = complete control
[17] = Preemergence, 500 g ai/ha, visual injury, 0 to 100 scale (0 no effect, 100 complete control), approx. ten days
[18] = 31 g ai/ha, postemergence, scale 0 to 100, 0 is no effect, 100 is complete control
[19] = 62 g ai/ha, postemergence, 0 is no effect, 100 is complete control, 13 to 15 days
[20] = Postemergence, 125 g ai/ha, visual rating after 13 to 15 days, scale 0 (no effect) to 100 (complete control)
[21] = Postemergence, 250 g ai/ha, scale 0 to 100 (0 no effect, 100 complete control)

CCCc1ncc(C(=O)C2=C(O)CCCC2=O)c(=O)n1-c1cccc(C)c1 [Compound 79]
Plant response rating, Barnyardgrass [1, 14]: 80
Plant response rating, Barnyardgrass [1, 15]: 90
Plant response rating, Barnyardgrass [1, 16]: 0
Plant response rating, Barnyardgrass [1, 17]: 70
Plant response rating, Pigweed [2, 14]: 100
Plant response rating, Pigweed [2, 15]: 100
Plant response rating, Pigweed [2, 16]: 100
Plant response rating, Pigweed [2, 17]: 100
Plant response rating, Ryegrass, Italian [3, 18]: 20
Ryegrass, Italian plant response rating (0 to 100 scale) [3, 19]: 20
Plant response rating, Ryegrass, Italian [3, 20]: 50
Plant response rating, Ryegrass, Italian [3, 21]: 55
Plant response rating, Surinam Grass [4, 18]: 20
Surinam Grass plant response rating (0 to 100 scale) [4, 19]: 45
Plant response rating, Surinam Grass [4, 20]: 75
Plant response rating, Surinam Grass [4, 21]: 90
Plant response rating, Blackgrass [5, 18]: 5
Blackgrass plant response rating (0 to 100 scale) [5, 19]: 15
Plant response rating, Blackgrass [5, 20]: 30
Plant response rating, Blackgrass [5, 21]: 45
Plant response rating, Bromegrass, Downy [6, 18]: 5
Bromegrass, Downy plant response rating (0 to 100 scale) [6, 19]: 10
Plant response rating, Bromegrass, Downy [6, 20]: 30
Plant response rating, Bromegrass, Downy [6, 21]: 65
Plant response rating, Goosegrass [7, 18]: 45
Goosegrass plant response rating (0 to 100 scale) [7, 19]: 65
Plant response rating, Goosegrass [7, 20]: 70
Plant response rating, Goosegrass [7, 21]: 80
Plant response rating, Crabgrass, Large [8, 18]: 80
Crabgrass, Large plant response rating (0 to 100 scale) [8, 19]: 85
Plant response rating, Crabgrass, Large [8, 20]: 90
Plant response rating, Crabgrass, Large [8, 21]: 95
Plant response rating, Morningglory [9, 18]: 80
Morningglory plant response rating (0 to 100 scale) [9, 19]: 95
Plant response rating, Morningglory [9, 20]: 100
Plant response rating, Morningglory [9, 21]: 100
Plant response rating, Velvetleaf [10, 18]: 95
Velvetleaf plant response rating (0 to 100 scale) [10, 19]: 98
Plant response rating, Velvetleaf [10, 20]: 98
Plant response rating, Velvetleaf [10, 21]: 100
Plant response rating, Wheat [11, 18]: 10
Wheat plant response rating (0 to 100 scale) [11, 19]: 25
Plant response rating, Wheat [11, 20]: 35
Plant response rating, Wheat [11, 21]: 40
Plant response rating, Cupgrass, Woolly [12, 18]: 10
Cupgrass, Woolly plant response rating (0 to 100 scale) [12, 19]: 40
Plant response rating, Cupgrass, Woolly [12, 20]: 65
Plant response rating, Cupgrass, Woolly [12, 21]: 75
Plant response rating, Nutsedge, Yellow [13, 18]: 25
Nutsedge, Yellow plant response rating (0 to 100 scale) [13, 19]: 60
Plant response rating, Nutsedge, Yellow [13, 20]: 70
Plant response rating, Nutsedge, Yellow [13, 21]: 80
